Data reported in US20260234165A1, “MACROCYCLIC COMPOUNDS, PREPARATION METHOD THEREFOR, AND USE THEREOF” (GENFLEET THERAPEUTICS (SHANGHAI) INC., priority 2004, published 2026).
Read-outs that look alike come from different tables or passages of the source.

Legend:
Assay type in all cases: cell-based, human
[1] = system: p-ERK in NCI-H441 cells (KRAS G12V mutation); assay: Cell p-ERK assay (HTRF) in NCI-H441 cells; details: NCI-H441 cells, 3 h compound incubation, HTRF p-ERK T202/Y204, read-out: H441 p-ERK IC50
How it was run: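 AsPC-1 (10000/well) or NCI-H441 (20000/well) cells were seeded overnight, then treated 3 h at 37° C. with 3.16-fold compound dilutions (0.1% DMSO final). Lysates were probed 4 h for phospho-ERK T202/Y204 by HTRF; inhibition versus DMSO and blank wells gave IC50 from four-parameter fits.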

[2] = system: NCI-H441 cells; assay: 3D cell proliferation assay (CellTiter Glo-3D), NCI-H441; details: medium with 2% FBS, read-out: H441 AP IC50
How it was run: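 Proliferation of the KRAS-mutant lines NCI-H441 and AsPC-1 is measured over 5 days of compound treatment in medium with 2% FBS. Inhibition is computed from luminescence relative to DMSO and cell-free controls, and IC50 comes from a four-parameter curve.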

[3] = system: AsPC-1 cells (KRAS G12D mutation); assay: 3D cell proliferation assay (CellTiter Glo-3D), AsPC-1; details: medium with 2% FBS, read-out: AsPC-1 AP IC50
From the text: MIA PaCa-2 cells were purchased from ATCC, Cat. No. CRL-1420; AsPC-1 cells were purchased from ATCC, Cat. No. CRL-1682; NCI-H441 cells were purchased from ATCC, Cat. No. HTB-174: NCI-H1975 cells were purchased from ATCC. Cat. No. CRL-5908; DMEM medium was purchased from Gibco, Cat. No. 11995-065: RPMI-1040 medium was purchased from Gibco. Cat. No. H 18754093; FBS was purchased from Gibco, Cat. No. 10099-141C. penicillin, streptomycin double-antibiotic solution (PS) was purchased from Gibco, Cat. No. 15140-122; Horse serum was purchased from Gibco. Cat. No. 16050130: trypsin (containing EDTA) was purchased from Gibco, Cat. No. 25200-072; DMSO was purchased from VWRAMRESCO, Cat. No. 0231-500ML; 384-well cell culture plates were purchased from Corning, Cat. No. 3830; white-bottomed, opaque 384-well assay plates were purchased from Corning, Cat. No. 3570. CellTiter Glo-3D) kit was purchased from Promega. Cat. No. G9683; cell counter was purchased from CHEMOMETEC, model: NC-200: microplate reader was purchased from PerkinElmer, model: EnVision.
MIA PaCa-2, a human pancreatic cancer cell strain endogenously containing a KRAS^G12C mutation, was cultured in a complete medium containing DMEM+10% FBS+2.5% Horse serum+1% PS. AsPC-1, a human pancreatic cancer cell strain endogenously containing a […] mutation, was cultured in a complete medium containing RPMI-1640+10% FBS+1% PS. NCI-H441 cells, a human lung cancer cell strain endogenously containing a […] mutation, were cultured in a complete medium containing RPMI-1640+10% FBS+1% PS. NCI-H1975, a KRAS wild-type human lung cancer cell strain whose cell proliferation depends on KRAS activity, was cultured in a complete medium containing RPMI-1640+10% FBS+1% PS.
The cells were digested with trypsin (containing EDTA), collected in their respective low-serum complete media containing 2% FBS (for MIA Paca-2 cell culture: DMEM+2% FBS+0.5% Horse serum+1% PS), and counted. After the cell density was adjusted as required, 200 MIA PaCa-2 cells, 800 AsPC-1 cells, 800 NCI-H441 cells, or 400 NCI-H1975 cells per well were seeded into a 384-well cell culture plate, with the volume of the medium in each well being 45 μL. The cell culture plate was incubated in an incubator at 37° C. with 5% CO2, overnight. A series of 3.16-fold gradient dilutions of a 1000× compound stock solution were prepared with DMSO, and then diluted 100-fold with the complete medium containing 2% FBS described above to give 10- compound stock solutions. On the day after cell seeding, 5 μL of the 10- compound stock solution was added to each cell culture well. As a result, the final concentration of the compound in the cell culture well became 1×, and the DMSO content in the well was 0.1%. In addition to the compound-treated wells described above, cell-containing DMSO control wells (with 5 μL of the complete medium containing 1% DMSO added to each well) and cell-free medium control wells (containing 50 μL of the complete medium with 2% FBS) were also set. The culture plate was incubated in an incubator at 37° C. with 5% CO2 for another 5 days, and then 30 μL of CellTiter-Glo working solution was added to each well. The mixture was well mixed, incubated for 30 min, left to stand at room temperature for 30 min, and then transferred to a white-bottomed, opaque 384-well assay plate at 40 μL/well. The chemiluminescence values (RLU) were measured using a microplate reader, and the cell proliferation inhibition rate for each well was calculated: IR (%)=(RLUDMSO—RLUcompound)/(RLUDMSO−RLUblank)×100%, where RLUDMSO is the average RLU signal value from the DMSO control well samples, RLUblank is the average RLU signal value from the medium control well samples, and RLUcompound is the RLU signal value from the compound-treated well samples. […]

[4] = Homo sapiens, NCI-H441, 3D cell proliferation (CellTiter Glo-3D)
[5] = Homo sapiens, ASPC1, 3D cell proliferation (CellTiter Glo-3D)
[6] = 3D cell proliferation (CellTiter Glo-3D)

Compound | IC50 ([1]; Homo sapiens, NCI-H441, 3 h) [nM] | IC50 [2, 4] [nM] | IC50 [3, 5] [nM] | IC50 [1] [nM] | IC50 [2, 6] [nM] | IC50 [3, 6] [nM]
CCn1c(-c2cc(C#CC34CCCN3CCC4)cnc2[C@H](C)OC)c2c3cc(ccc31)-c1csc(n1)C[C@H](NC(=O)[C@H]1[C@H](C)[C@@H]1C)C(=O)N1CCC[C@H](N1)C(=O)OCC(C)(C)C2 (atropisomer, axis not shown; (Ra)) [Compound Z794, (1r,2R,3S)—N-((6^3S,4S,Z)—(Ra)-1^2-ethyl-1^2-(2-((S)-1-methoxyethyl)-5-((tetrahydro-1H-pyrrolizin-7a(5H)-yl)ethynyl)pyridin-3-yl)-10,10-dimethyl-5,7-dioxo-6^1,6^2,6^3,6^4,6^5,6^6-hexahydro-1^1H-8-oxa-2(4,2)-thiazola-1(5,3)-indola-6(1,3)-pyridazinacycloundecaphane-4-yl)-2,3-dimethylcyclopropane-1-carboxamide] | 0.49 | 0.66 | 2.07 |  |  | 
CO[C@@H](C)c1ncc(C#CCN2CCS(=O)(=O)CC2)cc1-c1c2c3cc(ccc3n1C(C)C)-c1csc(n1)C[C@H](Nc1nnc3cc(C)ccn13)C(=O)N1CCC[C@H](N1)C(=O)OCC(C)(C)C2 (atropisomer, axis not shown; (Ra)) [Compound Z913-1, (6^3S,4S,Z)—(Ra)-1^1-(5-(3-(1,1-dioxidothiomorpholino)prop-1-yn-1-yl)-2-((S)-1-methoxyethyl)pyridin-3-yl)-1′-isopropyl-10,10-dimethyl-4-((7-methyl-[1,2,4]triazolo[4,3-a]pyridin-3-yl)amino)-6^1,6^2,6^3,6^4,6^5,6^6-hexahydro-1^1H-8-oxa-2(4,2)-thiazola-1(5,3)-indola-6(1.3)-pyridazinacycloundecaphane-5,7-dione] |  | 4.18 | 8.88 |  |  | 
CCn1c(-c2cc(C#CCN3CCC(=O)N(C)CC3)cnc2[C@H](C)OC)c2c3cc(ccc31)-c1csc(n1)C[C@H](Nc1nnc3cc(C)ccn13)C(=O)N1CCC[C@H](N1)C(=O)OCC(C)(C)C2 (atropisomer, axis not shown; (Ra)) [Compound Z957, (6^3S,4S2)-1-(5-(3-(4-methyl-1,4-diazepan-5-one-1-yl)prop-1-yn-1-yl)-(Ra)-2-((S)-1-methoxyethyl)pyridin-3-yl)-1^1-ethyl-10,10-dimethyl-4-((7-methyl-[,2,4]triazolo[4,3-a]pyridin-3-yl)amino)-6^1,6^2,6^3,6^4,6^5,6^6-hexahydro-1^1H-8-oxa-2(4,2)-thiazola-1(5,3)-indola-6(1,3)-pyridazinacycloundecaphane-5,7-dione] |  |  |  | 2.63 | 2.47 | 6.69
CCn1c(-c2cc(C#CCN3CCC(F)(F)CC3)cnc2[C@H](C)OC)c2c3cc(ccc31)-c1csc(n1)C[C@H](Nc1nnc3cc(C)ccn13)C(=O)N1CCC[C@H](N1)C(=O)OCC(C)(C)C2 (atropisomer, axis not shown; (Ra)) [Compound Z958, (6^3S,4S,Z)—(Ra)-1-(5-(3-(4,4-difluoropiperidin-1-yl)prop-1-yn-1-yl)-2-((S)-1-methoxyethyl)pyridin-3-yl)-1^1-ethyl-10,10-dimethyl-4-((7-methyl-[1,2,4]triazolo[4,3-a]pyridin-3-yl)amino)-6^1,6^2,6^3,6^4,6^5,6^6-hexahydro-1^1H-8-oxa-2(4,2)-thiazola-1(5,3)-indola-6(1,3)-pyridazinacycloundecaphane-5,7-dione] | 5.78 | 4.93 | 6.12 |  |  | 
CCn1c(-c2cc(C#CCN3CCOC[C@@H](O)C3)cnc2[C@H](C)OC)c2c3cc(ccc31)-c1csc(n1)C[C@H](Nc1nnc3cc(C)ccn13)C(=O)N1CCC[C@H](N1)C(=O)OCC(C)(C)C2 (atropisomer, axis not shown; (Ra)) [Compound Z966, (6^3S,4S,Z)-1^1-ethyl-(Ra)-1^2-(5-(3-((S)-6-hydroxy-1,4-oxazepan-4-yl)prop-1-yn-1-yl)-2-((S)-1-methoxyethyl)pyridin-3-yl)-10,10-dimethyl-4-((7-methyl-[1,2,4]triazolo[4,3-a]pyridin-3-yl)amino)-6^1,6^2,6^3,6^4,6^5,6^6-hexahydro-1^1H-8-oxa-2(4,2)-thiazola-1(5,3)-indola-6(1,3)-pyridazinacycloundecaphane-5,7-dione] |  | 4.91 | 9.41 |  |  | 
CCn1c(-c2cc(C#CCN3CC(C#N)C3)cnc2[C@H](C)OC)c2c3cc(ccc31)-c1csc(n1)C[C@H](Nc1nnc3cc(C)ccn13)C(=O)N1CCC[C@H](N1)C(=O)OCC(C)(C)C2 (atropisomer, axis not shown; (Ra)) [Compound Z974, 1-(3-(5-((6^3S,4S,Z)-1^1-ethyl-10,10-dimethyl-4-((7-methyl-[1,2,4]triazolo[4,3-a]pyridin-3-yl)amino)-5,7-dioxo-6^1,6^2,6^3,6^4,6^5,6^6-hexahydro-1^1H-8-oxa-2(4,2)-thiazola-1(5,3)-indola-6(1,3)-pyridazinacycloundecaphane-1^2-yl)-6-(Ra)—((S)-1-methoxyethyl)pyridin-3-yl)prop-2-yn-1-yl)azetidine-3-carbonitrile] | 2.12 | 3.46 | 5.6 |  |  | 
CCn1c(-c2cccnc2[C@H](C)OC)c2c3cc(ccc31)-c1csc(n1)C[C@H](NC(=O)C(C)(C)F)C(=O)N1CCC[C@H](N1)C(=O)OCC(C)(C)C2 (single isomer, unassigned) [Compound Z1] |  | 446 | 565 |  |  | 
CCn1c(-c2cc(C(C)N3CCN(C)CC3)cnc2[C@H](C)OC)c2c3cc(ccc31)-c1csc(n1)C[C@H](NC(=O)[C@H]1[C@H](C)[C@@H]1C)C(=O)N1CCC[C@H](N1)C(=O)OCC1(CC1)C2 (stereo partly drawn) [Compound Z456] |  |  |  | 61.3 | 125 | 151
CCn1c(-c2cc(C#CCN3CCCOCC3)cnc2[C@H](C)OC)c2c3cc(ccc31)-c1csc(n1)C[C@H](Nc1nnc3cc(C)ccn13)C(=O)N1CCC[C@H](N1)C(=O)OCC(C)(C)C2 [Compound Z955, (6^3S,4S2)-1^2-(5-(3-(1,4-oxazepan-4-yl)prop-1-yn-1-yl)-2-((S)-1-methoxyethyl)pyridin-3-yl)-1^1-ethyl-10,10-dimethyl-4-((7-methyl-[1,2,4]triazolo[4,3-a]pyridin-3-yl)amino)-6^1,6^2,6^3,6^4,6^5,6^6-hexahydro-1^1H-8-oxa-2(4,2)-thiazola-1(5,3)-indola-6(1,3)-pyridazinacycloundecaphane-5J7-dione] | 2.6 | 2.96 | 4.82 |  |  | 
